Earlier results in patent US9082274B2, “Odor generation alarm and method for informing unusual situation” (priority 2008, dated 2015).
Like-named read-outs stand apart in the source and are kept apart here.

Experiments:
rats = conditions: exposed for four hours
mice [1] = conditions: oral
mice [2] = conditions: exposed for four hours
person [3] = conditions: concentration in air, ppm by amount of substance
person [4] = conditions: with respect to a person, ppm by amount of substance
domestic rabbits = conditions: AIT diluted to 0.1% to 10% with corn oil introduced into the eyes
[5] = orally administered; route not printed in b8

| Structure (SMILES) | lachrymatory effect (humans) | lethal inhaled concentration (inhaled LC50) (rats) | orally administered lethal dose (LD50) (mice [1]) | solubility in water | lethal inhaled concentration (inhaled LC50) (mice [2]) | concentration at which a person becomes unable to tolerate the atmosphere / strength of smell (person [3]) | concentration at which a person starts to notice a pungent odor (person [3]) | concentration from which a person recognizes the smell of wasabi (person [3]) | concentration at which a person becomes unable to tolerate the atmosphere / strength of smell (person [3]; listed as allyl isothiocyanate) | no observed effect concentration (person [4]) | ocular findings after instillation (domestic rabbits) | acute dermal toxicity LD50 (rabbits) | effect when entering the eyes (skin, eyes; eye contact) | effect when coming into contact with the skin (skin, eyes; skin contact) | lethal dose (LD50) [5] |
| --- | --- | --- | --- | --- | --- | --- | --- | --- | --- | --- | --- | --- | --- | --- | --- |
| C=CCN=C=S [AIT, allyl isothiocyanate] | there is a lachrymatory effect on humans | 173 ppm | 310 mg/kg | does not dissolve easily in water | 155 ppm | ≥ 10 ppm | ~1 ppm | around 5 ppm | 10 ppm | 74.3 ppm | nothing more than transient edema and conjunctival hyperemia | 88 mg/kg |  |  |  |
| CS [methyl mercaptan] |  |  |  |  |  |  |  |  |  |  |  |  | reddening and pain when entering the eyes | reddening and pain of the skin | 2.4 mg/kg |
